Laboratory results reported in patent US7786114B2, “Bis-azaindole derivatives, preparation and pharmaceutical use thereof as kinase inhibitors” (Aventis Pharma S.A., priority 2004, dated 2010).

Row | melting point [°C] | Structure (SMILES)
1 | 189 | COc1cc2c(nc1OC)c(-c1cc3c(Cl)c(F)cnc3[nH]1)cn2CCCN1CCOCC1 [Example 14, 3-(4-Chloro-5-fluoro-1H-pyrrolo[2,3-b]pyridin-2-yl)-5,6-dimethoxy-1-(3-morpholin-4-ylpropyl)-1H-pyrrolo[3,2-b]pyridine]
2 | 135 | COc1cc2c(nc1OC)c(-c1cc3c(Cl)c(F)cnc3[nH]1)cn2CCCN1CCC(CN)CC1 [Example 15, C-(1-{3-[3-(4-Chloro-5-fluoro-1H-pyrrolo[2,3-b]pyridin-2-yl)-5,6-dimethoxypyrrolo[3,2-b]pyridin-1-yl]propyl}piperidin-4-yl)methylamine]
3 | 110 to 114 | COc1cc2c(nc1OC)c(-c1cc3c(Cl)c(F)cnc3[nH]1)cn2CCCN1CCCCC1 [Example 11, 3-[4-Chloro-5-fluoro-1H-pyrrolo[2,3-b]pyridin-2-yl]-5,6-dimethoxy-1-(3-piperidin-1-ylpropyl)-1H-pyrrolo[3,2-b]pyridine]
4 | 188 | COc1cc2c(nc1OC)c(-c1cc3c(Cl)c(F)cnc3[nH]1)cn2CCCN1CCC(O)CC1 [Example 12, 1-{3-[3-(4-Chloro-5-fluoro-1H-pyrrolo[2,3-b]pyridin-2-yl)-5,6-dimethoxypyrrolo[3,2-b]pyridin-1-yl]propyl}piperidin-4-ol]

Second part, the compound before the results:

Row | Structure (SMILES) | melting point [°C]
5 | COc1cc2c(nc1OC)c(-c1cc3c(Cl)c(F)cnc3[nH]1)cn2CCCN1CCCN(C)CC1 [Example 13, 3-(4-Chloro-5-fluoro-1H-pyrrolo[2,3-b]pyridin-2-yl)-5,6-dimethoxy-1-[3-(4-methylperhydro-1,4-diazepin-1-yl)propyl]-1H-pyrrolo[3,2-b]pyridine] | 140 to 145
6 | COc1cc2c(nc1OC)c(-c1cc3c(Cl)c(F)cnc3[nH]1)cn2CCCN1CCN(C)CC1 [Example 16, 3-(4-Chloro-5-fluoro-1H-pyrrolo[2,3-b]pyridin-2-yl)-5,6-dimethoxy-1-[3-(4-methylpiperazin-1-yl)propyl]-1H-pyrrolo[3,2-b]pyridine] | 155
7 | COc1cc2c(nc1OC)c(-c1cc3cc(F)cnc3[nH]1)cn2CCN1CCOCC1 [Example 7, 3-(5-fluoro-1H-pyrrolo[2,3-b]pyridin-2-yl)-5,6-dimethoxy-1-(2-morpholin-4-ylethyl)-1H-pyrrolo[3,2-b]pyridine] | 218
8 | COc1cc2[nH]cc(-c3cc4c(Cl)c(F)cnc4[nH]3)c2nc1OC [Example 9, 3-[4-Chloro-5-fluoro-1H-pyrrolo[2,3-b]pyridin-2-yl]-5,6-dimethoxy-1H-pyrrolo[3,2-b]pyridine] | 283 to 284
9 | COc1cc2c(nc1OC)c(-c1cc3c(Cl)c(F)cnc3[nH]1)cn2CCN1CCOCC1 [Example 8, 3-(4-chloro-5-fluoro-1H-pyrrolo[2,3-b]pyridin-2-yl)-5,6-dimethoxy-1-(2-morpholin-4-yl-ethyl)-1H-pyrrolo[3,2-b]pyridine] | 206
